ChEMBL document CHEMBL1201862, “PubChem BioAssay data set” (2004)
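Five compound concentrations were applied to cells in 96-well plates for 48 hours; endpoints were derived by simple linear interpolation of the resulting dose-response curve. GI50 marks 50% less growth.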 Active and inactive are the calls of the source. Rule as the data show it: active = GI50 up to about 1.1 µM and inactive = higher. Non-standard residues stand in square brackets, D forms with d. Residues, ends and D or L forms follow the SMILES beside them.

Key:
Experiment in all cases: NCI-60 cell line screen, 48 h
HT-29 = test system: HT-29
MDA-N = test system: MDA-N
NCI-H23 = test system: NCI-H23
MDA-MB-231 = test system: MDA-MB-231
OVCAR-4 = test system: OVCAR-4
786-0 = test system: 786-0
ACHN = test system: ACHN
A549 = test system: A549
NCI/ADR-RES = test system: NCI/ADR-RES
Malme-3M = test system: Malme-3M
SNB-75 = test system: SNB-75
HOP-92 = test system: HOP-92
SN12C = test system: SN12C
UACC-257 = test system: UACC-257
SF-295 = test system: SF-295
UACC-62 = test system: UACC-62
SNB-19 = test system: SNB-19
UO-31 = test system: UO-31
TK-10 = test system: TK-10

Row | Structure (SMILES) | GI50 (HT-29) | GI50 (MDA-N) | GI50 (NCI-H23) | GI50 (MDA-MB-231) | GI50 (OVCAR-4) | GI50 (786-0) | GI50 (ACHN) | GI50 (A549) | GI50 (NCI/ADR-RES) | GI50 (Malme-3M) | GI50 (SNB-75) | GI50 (HOP-92) | GI50 (SN12C) | GI50 (UACC-257) | GI50 (SF-295) | GI50 (UACC-62) | GI50 (SNB-19) | GI50 (UO-31) | GI50 (TK-10)
1 | CCOC(=O)C(NC(=O)CC)(Nc1ccc(S(=O)(=O)Nc2onc(C)c2C)cc1)C(F)(F)F (configuration not stated) | > 100 µM (inactive) | > 100 µM (inactive) | > 100 µM (inactive) | > 100 µM (inactive) | > 100 µM (inactive) | > 100 µM (inactive) | > 100 µM (inactive) | > 100 µM (inactive) | > 100 µM (inactive) | > 100 µM (inactive) | 14.9 µM (inactive) | > 100 µM (inactive) | > 100 µM (inactive) | > 100 µM (inactive) | > 100 µM (inactive) | > 100 µM (inactive) | > 100 µM (inactive) | > 100 µM (inactive) | –
2 | CCOc1cnc(C(O)(c2ccccc2)c2ccccc2)o1 | > 100 µM (inactive) | > 100 µM (inactive) | > 100 µM (inactive) | > 100 µM (inactive) | > 100 µM (inactive) | > 100 µM (inactive) | > 100 µM (inactive) | > 100 µM (inactive) | > 100 µM (inactive) | > 100 µM (inactive) | > 100 µM (inactive) | 58.9 µM (inactive) | > 100 µM (inactive) | > 100 µM (inactive) | > 100 µM (inactive) | > 100 µM (inactive) | > 100 µM (inactive) | > 100 µM (inactive) | –
3 | O=C(CNc1ccc(Cl)cc1Cl)NC1C=Cc2ccc(S(=O)(=O)Nc3ccc(Cl)cc3Cl)cc2C1=O (configuration not stated) | > 100 µM (inactive) | > 100 µM (inactive) | > 100 µM (inactive) | > 100 µM (inactive) | – | > 100 µM (inactive) | > 100 µM (inactive) | > 100 µM (inactive) | > 100 µM (inactive) | > 100 µM (inactive) | > 100 µM (inactive) | > 100 µM (inactive) | > 100 µM (inactive) | > 100 µM (inactive) | > 100 µM (inactive) | > 100 µM (inactive) | > 100 µM (inactive) | 54.2 µM (inactive) | > 100 µM (inactive)
4 | CC(C)CCC/C(CBr)=C(\Cl)CCl | 2.37 µM (inactive) | 1.83 µM (inactive) | 2.4 µM (inactive) | 2.81 µM (inactive) | 1.48 µM (inactive) | 1.85 µM (inactive) | 11.2 µM (inactive) | 15.7 µM (inactive) | 3.27 µM (inactive) | 2.59 µM (inactive) | 1.95 µM (inactive) | 2.14 µM (inactive) | 2.82 µM (inactive) | 2.13 µM (inactive) | 13.3 µM (inactive) | – | 14.5 µM (inactive) | 3.27 µM (inactive) | 1.88 µM (inactive)
5 | COC(=O)c1cc2/c(=N/O)c3ccccc3sc2o1 | > 100 µM (inactive) | > 100 µM (inactive) | > 100 µM (inactive) | > 100 µM (inactive) | > 100 µM (inactive) | > 100 µM (inactive) | > 100 µM (inactive) | > 100 µM (inactive) | > 100 µM (inactive) | > 100 µM (inactive) | > 100 µM (inactive) | > 100 µM (inactive) | > 100 µM (inactive) | > 100 µM (inactive) | > 100 µM (inactive) | > 100 µM (inactive) | > 100 µM (inactive) | – | > 100 µM (inactive)
6 | CC(C)=CCNc1ncnc2c1ncn2CCC#N | > 100 µM (inactive) | > 100 µM (inactive) | > 100 µM (inactive) | > 100 µM (inactive) | 45.1 µM (inactive) | > 100 µM (inactive) | > 100 µM (inactive) | > 100 µM (inactive) | > 100 µM (inactive) | > 100 µM (inactive) | 19.8 µM (inactive) | > 100 µM (inactive) | > 100 µM (inactive) | – | > 100 µM (inactive) | > 100 µM (inactive) | > 100 µM (inactive) | > 100 µM (inactive) | > 100 µM (inactive)
7 | CC(C)COP(C)(=O)C(N)(C(F)(F)F)C(F)(F)F (configuration not stated) | > 100 µM (inactive) | > 100 µM (inactive) | > 100 µM (inactive) | > 100 µM (inactive) | > 100 µM (inactive) | > 100 µM (inactive) | > 100 µM (inactive) | > 100 µM (inactive) | > 100 µM (inactive) | > 100 µM (inactive) | 7.78 µM (inactive) | > 100 µM (inactive) | > 100 µM (inactive) | > 100 µM (inactive) | > 100 µM (inactive) | > 100 µM (inactive) | – | > 100 µM (inactive) | > 100 µM (inactive)
8 | CCCCCCCCCCCCC(O)C1CCC(C(O)CCCCCCC(O)CCCCCCCC2=CC(C)OC2=O)O1 (configuration not stated) | – | 17.7 µM (inactive) | 0.0109 µM (active) | 28.6 µM (inactive) | 34.4 µM (inactive) | 32.9 µM (inactive) | 2.48 µM (inactive) | 4.23 µM (inactive) | 1.84 µM (inactive) | 25.9 µM (inactive) | 5.58 µM (inactive) | 25.8 µM (inactive) | 25.8 µM (inactive) | 2.17 µM (inactive) | 3.86 µM (inactive) | > 10 µM (inactive) | 34.4 µM (inactive) | 3.08 µM (inactive) | 35.4 µM (inactive)
9 | O=C1NCC2(CCNCC2)N1c1ccccc1 | > 100 µM (inactive) | > 100 µM (inactive) | > 100 µM (inactive) | > 100 µM (inactive) | > 100 µM (inactive) | > 100 µM (inactive) | > 100 µM (inactive) | > 100 µM (inactive) | > 100 µM (inactive) | > 100 µM (inactive) | > 100 µM (inactive) | > 100 µM (inactive) | > 100 µM (inactive) | > 100 µM (inactive) | > 100 µM (inactive) | > 100 µM (inactive) | > 100 µM (inactive) | – | > 100 µM (inactive)
10 | COc1ccc(C(C)NNC(=O)c2cc[n+]([BH2-]C#N)cc2)c(OC)c1 (configuration not stated) | – | > 100 µM (inactive) | – | > 100 µM (inactive) | 69.5 µM (inactive) | > 100 µM (inactive) | > 100 µM (inactive) | > 100 µM (inactive) | > 100 µM (inactive) | > 100 µM (inactive) | > 100 µM (inactive) | > 100 µM (inactive) | > 100 µM (inactive) | > 100 µM (inactive) | > 100 µM (inactive) | > 100 µM (inactive) | > 100 µM (inactive) | > 100 µM (inactive) | > 100 µM (inactive)
11 | CSCC[C@H](NC(=O)[C@@H](N)CC(N)=O)C(=O)N[C@@H](Cc1c[nH]c2ccccc12)C(=O)N[C@@H](CCC(N)=O)C(=O)N[C@@H](CCC(=O)O)C(=O)N[C@H](C(=O)NCC(=O)N[C@@H](CCCCN)C(=O)N[C@H](C)C(=O)O)C(C)C (H-NMWQEVGK[dA]-OH) | > 100 µM (inactive) | > 100 µM (inactive) | > 100 µM (inactive) | > 100 µM (inactive) | > 100 µM (inactive) | > 100 µM (inactive) | > 100 µM (inactive) | > 100 µM (inactive) | > 100 µM (inactive) | > 100 µM (inactive) | > 100 µM (inactive) | > 100 µM (inactive) | > 100 µM (inactive) | > 100 µM (inactive) | > 100 µM (inactive) | > 100 µM (inactive) | > 100 µM (inactive) | – | > 100 µM (inactive)
